Source: US20240252454A1, “COMPOSITION COMPRISING AN INHIBITOR OF MITOCHONDRIAL TRANSCRIPTION” (LEAD DISCOVERY CENTER GMBH, priority 2021, published 2024)

Key:
Experiment in all cases: SRB assay, IMT combined with inhibitor
Format in all cases: cell-based
A673 = A673 (muscle); concentration series of the labelled inhibitor + fixed concentration of IMT (3S)-1-[(2R)-2-[4-(2-chloro-4-fluoro-phenyl)-2-oxo-chromen-7-yl]oxypropanoyl]piperidine-3-carboxylic acid (Table 3: 40 nM, 120 h); negative=synergistic, positive=antagonistic
Outline: (§1)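 Fixed 40 nM (3S)-1-[(2R)-2-[4-(2-chloro-4-fluoro-phenyl)-2-oxo-chromen-7-yl]oxypropanoyl]piperidine-3-carboxylic acid was co-dosed with serially diluted MAPK SOC inhibitors for 120 h. Growth read by SRB; 5 mM glucose, at least duplicate independent runs.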

CALU6 = CALU6 (lung); concentration series of the labelled inhibitor + fixed concentration of IMT (3S)-1-[(2R)-2-[4-(2-chloro-4-fluoro-phenyl)-2-oxo-chromen-7-yl]oxypropanoyl]piperidine-3-carboxylic acid (Table 3: 40 nM, 120 h); negative=synergistic, positive=antagonistic
Outline: as §1

COLO205 = COLO205 (colon); concentration series of the labelled inhibitor + fixed concentration of IMT (3S)-1-[(2R)-2-[4-(2-chloro-4-fluoro-phenyl)-2-oxo-chromen-7-yl]oxypropanoyl]piperidine-3-carboxylic acid (Table 3: 40 nM, 120 h); negative=synergistic, positive=antagonistic
Outline: as §1

GRANTA-519 = GRANTA-519 (hematological); concentration series of the labelled inhibitor + fixed concentration of IMT (3S)-1-[(2R)-2-[4-(2-chloro-4-fluoro-phenyl)-2-oxo-chromen-7-yl]oxypropanoyl]piperidine-3-carboxylic acid (Table 3: 40 nM, 120 h); negative=synergistic, positive=antagonistic
Outline: as §1

HCT15 = HCT15 (colon); concentration series of the labelled inhibitor + fixed concentration of IMT (3S)-1-[(2R)-2-[4-(2-chloro-4-fluoro-phenyl)-2-oxo-chromen-7-yl]oxypropanoyl]piperidine-3-carboxylic acid (Table 3: 40 nM, 120 h); negative=synergistic, positive=antagonistic
Outline: as §1

HEPG2 = HEPG2 (liver); concentration series of the labelled inhibitor + fixed concentration of IMT (3S)-1-[(2R)-2-[4-(2-chloro-4-fluoro-phenyl)-2-oxo-chromen-7-yl]oxypropanoyl]piperidine-3-carboxylic acid (Table 3: 40 nM, 120 h); negative=synergistic, positive=antagonistic
Outline: as §1

HT29 = HT29 (colon); concentration series of the labelled inhibitor + fixed concentration of IMT (3S)-1-[(2R)-2-[4-(2-chloro-4-fluoro-phenyl)-2-oxo-chromen-7-yl]oxypropanoyl]piperidine-3-carboxylic acid (Table 3: 40 nM, 120 h); negative=synergistic, positive=antagonistic
Outline: as §1

IMR90 = IMR90 (lung); concentration series of the labelled inhibitor + fixed concentration of IMT (3S)-1-[(2R)-2-[4-(2-chloro-4-fluoro-phenyl)-2-oxo-chromen-7-yl]oxypropanoyl]piperidine-3-carboxylic acid (Table 3: 40 nM, 120 h); negative=synergistic, positive=antagonistic
Outline: as §1

MHHES1 = MHHES1 (bone); concentration series of the labelled inhibitor + fixed concentration of IMT (3S)-1-[(2R)-2-[4-(2-chloro-4-fluoro-phenyl)-2-oxo-chromen-7-yl]oxypropanoyl]piperidine-3-carboxylic acid (Table 3: 40 nM, 120 h); negative=synergistic, positive=antagonistic
Outline: as §1

MIAPACA2 = MIAPACA2 (pancreas); concentration series of the labelled inhibitor + fixed concentration of IMT (3S)-1-[(2R)-2-[4-(2-chloro-4-fluoro-phenyl)-2-oxo-chromen-7-yl]oxypropanoyl]piperidine-3-carboxylic acid (Table 3: 40 nM, 120 h); negative=synergistic, positive=antagonistic
Outline: as §1

NCIH460 = NCIH460 (lung); concentration series of the labelled inhibitor + fixed concentration of IMT (3S)-1-[(2R)-2-[4-(2-chloro-4-fluoro-phenyl)-2-oxo-chromen-7-yl]oxypropanoyl]piperidine-3-carboxylic acid (Table 3: 40 nM, 120 h); negative=synergistic, positive=antagonistic
Outline: as §1

SKMEL28 = SKMEL28 (skin); concentration series of the labelled inhibitor + fixed concentration of IMT (3S)-1-[(2R)-2-[4-(2-chloro-4-fluoro-phenyl)-2-oxo-chromen-7-yl]oxypropanoyl]piperidine-3-carboxylic acid (Table 3: 40 nM, 120 h); negative=synergistic, positive=antagonistic
Outline: as §1

SKMEL5 = SKMEL5 (skin); concentration series of the labelled inhibitor + fixed concentration of IMT (3S)-1-[(2R)-2-[4-(2-chloro-4-fluoro-phenyl)-2-oxo-chromen-7-yl]oxypropanoyl]piperidine-3-carboxylic acid (Table 3: 40 nM, 120 h); negative=synergistic, positive=antagonistic
Outline: as §1

SKOV3 = SKOV3 (ovary); concentration series of the labelled inhibitor + fixed concentration of IMT (3S)-1-[(2R)-2-[4-(2-chloro-4-fluoro-phenyl)-2-oxo-chromen-7-yl]oxypropanoyl]piperidine-3-carboxylic acid (Table 3: 40 nM, 120 h); negative=synergistic, positive=antagonistic
Outline: as §1

Cc1cc(C(=O)NOCCO)c(Nc2ccc(I)cc2F)n(C)c1=O [AZD8330, 2-((2-Fluoro-4-iodophenyl)amino)-N-(2-hydroxyethoxy)-1,5-dimethyl-6-oxo-1,6-dihydropyridine-3-carboxamide]
difference between the calculated combinatorial index (BLISS) and the observed combinatorial effect (A673): −0.0047 | difference between the calculated combinatorial index (BLISS) and the observed combinatorial effect (CALU6): −0.0116 | difference between the calculated combinatorial index (BLISS) and the observed combinatorial effect (COLO205): 0.0127 | difference between the calculated combinatorial index (BLISS) and the observed combinatorial effect (GRANTA-519): −0.0506 | difference between the calculated combinatorial index (BLISS) and the observed combinatorial effect (HCT15): 0.1028 | difference between the calculated combinatorial index (BLISS) and the observed combinatorial effect (HEPG2): 0.0270 | difference between the calculated combinatorial index (BLISS) and the observed combinatorial effect (HT29): 0.0488 | difference between the calculated combinatorial index (BLISS) and the observed combinatorial effect (IMR90): 0.0338 | difference between the calculated combinatorial index (BLISS) and the observed combinatorial effect (MHHES1): 0.0682 | difference between the calculated combinatorial index (BLISS) and the observed combinatorial effect (MIAPACA2): 0.1347 | difference between the calculated combinatorial index (BLISS) and the observed combinatorial effect (NCIH460): 0.0015 | difference between the calculated combinatorial index (BLISS) and the observed combinatorial effect (SKMEL28): 0.0300 | difference between the calculated combinatorial index (BLISS) and the observed combinatorial effect (SKMEL5): 0.0135 | difference between the calculated combinatorial index (BLISS) and the observed combinatorial effect (SKOV3): −0.0609

COc1c(OCCCN2CCOCC2)ccc2c1N=C(NC(=O)c1cnc(N)nc1)N1CCN=C21 [BAY 80-6946, 2-Amino-N-{7-methoxy-8-[3-(4-morpholinyl)propoxy]-2,3-dihydroimidazo[1,2-c]quinazolin-5-yl}-5-pyrimidinecarboxamide]
difference between the calculated combinatorial index (BLISS) and the observed combinatorial effect (A673): 0.0259 | difference between the calculated combinatorial index (BLISS) and the observed combinatorial effect (CALU6): 0.0374 | difference between the calculated combinatorial index (BLISS) and the observed combinatorial effect (COLO205): 0.0531 | difference between the calculated combinatorial index (BLISS) and the observed combinatorial effect (GRANTA-519): 0.0631 | difference between the calculated combinatorial index (BLISS) and the observed combinatorial effect (HCT15): 0.1444 | difference between the calculated combinatorial index (BLISS) and the observed combinatorial effect (HEPG2): −0.0273 | difference between the calculated combinatorial index (BLISS) and the observed combinatorial effect (HT29): 0.0613 | difference between the calculated combinatorial index (BLISS) and the observed combinatorial effect (IMR90): 0.0281 | difference between the calculated combinatorial index (BLISS) and the observed combinatorial effect (MIAPACA2): 0.0574 | difference between the calculated combinatorial index (BLISS) and the observed combinatorial effect (NCIH460): −0.0473 | difference between the calculated combinatorial index (BLISS) and the observed combinatorial effect (SKMEL28): −0.0068 | difference between the calculated combinatorial index (BLISS) and the observed combinatorial effect (SKMEL5): −0.0994 | difference between the calculated combinatorial index (BLISS) and the observed combinatorial effect (SKOV3): 0.0112

C[C@H](Nc1ncnc2nc[nH]c12)c1cc2cccc(Cl)c2c(=O)n1-c1ccccc1 [Duvelisib]
difference between the calculated combinatorial index (BLISS) and the observed combinatorial effect (A673): 0.0570 | difference between the calculated combinatorial index (BLISS) and the observed combinatorial effect (CALU6): 0.0342 | difference between the calculated combinatorial index (BLISS) and the observed combinatorial effect (COLO205): −0.0157 | difference between the calculated combinatorial index (BLISS) and the observed combinatorial effect (GRANTA-519): 0.0770 | difference between the calculated combinatorial index (BLISS) and the observed combinatorial effect (HCT15): 0.0170 | difference between the calculated combinatorial index (BLISS) and the observed combinatorial effect (HEPG2): −0.0318 | difference between the calculated combinatorial index (BLISS) and the observed combinatorial effect (HT29): 0.0216 | difference between the calculated combinatorial index (BLISS) and the observed combinatorial effect (IMR90): 0.0253 | difference between the calculated combinatorial index (BLISS) and the observed combinatorial effect (MIAPACA2): −0.0183 | difference between the calculated combinatorial index (BLISS) and the observed combinatorial effect (NCIH460): −0.0651 | difference between the calculated combinatorial index (BLISS) and the observed combinatorial effect (SKMEL28): −0.0412 | difference between the calculated combinatorial index (BLISS) and the observed combinatorial effect (SKMEL5): −0.1083 | difference between the calculated combinatorial index (BLISS) and the observed combinatorial effect (SKOV3): 0.0398

CS(=O)(=O)N1CCN(Cc2cc3nc(-c4cccc5[nH]ncc45)nc(N4CCOCC4)c3s2)CC1 [GDC-0941, 2-(1H-Indazol-4-yl)-6-[[4-(methylsulfonyl)-1-piperazinyl]methyl]-4-(4-morpholinyl)thieno[3,2-d]pyrimidine]
difference between the calculated combinatorial index (BLISS) and the observed combinatorial effect (A673): 0.0099 | difference between the calculated combinatorial index (BLISS) and the observed combinatorial effect (CALU6): −0.0406 | difference between the calculated combinatorial index (BLISS) and the observed combinatorial effect (COLO205): 0.0355 | difference between the calculated combinatorial index (BLISS) and the observed combinatorial effect (GRANTA-519): 0.0647 | difference between the calculated combinatorial index (BLISS) and the observed combinatorial effect (HCT15): 0.0270 | difference between the calculated combinatorial index (BLISS) and the observed combinatorial effect (HEPG2): −0.0006 | difference between the calculated combinatorial index (BLISS) and the observed combinatorial effect (HT29): 0.1027 | difference between the calculated combinatorial index (BLISS) and the observed combinatorial effect (IMR90): 0.0629 | difference between the calculated combinatorial index (BLISS) and the observed combinatorial effect (MIAPACA2): 0.0516 | difference between the calculated combinatorial index (BLISS) and the observed combinatorial effect (NCIH460): −0.0178 | difference between the calculated combinatorial index (BLISS) and the observed combinatorial effect (SKMEL28): −0.0330 | difference between the calculated combinatorial index (BLISS) and the observed combinatorial effect (SKMEL5): −0.0915 | difference between the calculated combinatorial index (BLISS) and the observed combinatorial effect (SKOV3): 0.0556

O=C(c1cc(Cc2n[nH]c(=O)c3ccccc23)ccc1F)N1CCN(C(=O)C2CC2)CC1 [Olaparib]
difference between the calculated combinatorial index (BLISS) and the observed combinatorial effect (A673): 0.0334 | difference between the calculated combinatorial index (BLISS) and the observed combinatorial effect (CALU6): 0.0400 | difference between the calculated combinatorial index (BLISS) and the observed combinatorial effect (COLO205): −0.0607 | difference between the calculated combinatorial index (BLISS) and the observed combinatorial effect (GRANTA-519): −0.0088 | difference between the calculated combinatorial index (BLISS) and the observed combinatorial effect (HCT15): −0.0472 | difference between the calculated combinatorial index (BLISS) and the observed combinatorial effect (HEPG2): −0.0439 | difference between the calculated combinatorial index (BLISS) and the observed combinatorial effect (HT29): 0.0068 | difference between the calculated combinatorial index (BLISS) and the observed combinatorial effect (IMR90): 0.0084 | difference between the calculated combinatorial index (BLISS) and the observed combinatorial effect (MHHES1): 0.0269 | difference between the calculated combinatorial index (BLISS) and the observed combinatorial effect (MIAPACA2): 0.0529 | difference between the calculated combinatorial index (BLISS) and the observed combinatorial effect (NCIH460): −0.0377 | difference between the calculated combinatorial index (BLISS) and the observed combinatorial effect (SKMEL28): −0.0624 | difference between the calculated combinatorial index (BLISS) and the observed combinatorial effect (SKOV3): 0.0092
